{"source": "paper PMC7881127", "about": "“Cholesterol as a modulator of cannabinoid receptor CB2 signaling” (Scientific Reports, 2021)", "key": {"[1]": {"biological_target": "T1, hCB2 (Homo sapiens, UniProt P34972)", "T1 construct": "purchased PerkinElmer ES111-M400UA; host or cells: CHO-K1 cells stably transfected", "T1 sequence (P34972 whole entry)": "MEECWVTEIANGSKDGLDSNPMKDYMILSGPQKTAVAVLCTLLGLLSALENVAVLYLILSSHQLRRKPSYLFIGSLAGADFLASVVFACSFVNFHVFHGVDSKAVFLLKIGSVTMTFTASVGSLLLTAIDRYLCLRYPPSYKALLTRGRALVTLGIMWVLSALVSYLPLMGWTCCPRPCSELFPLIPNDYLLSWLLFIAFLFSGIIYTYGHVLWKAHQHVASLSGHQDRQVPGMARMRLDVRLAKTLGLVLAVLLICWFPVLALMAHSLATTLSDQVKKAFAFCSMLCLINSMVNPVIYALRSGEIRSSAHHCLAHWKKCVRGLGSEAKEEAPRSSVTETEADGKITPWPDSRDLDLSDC", "assay": "Radioligand ([3H]CP-55,940) displacement binding in hCB2-CHO-K1 cell membranes", "procedure": "The assay was performed as described previously. […] Plasma membranes were from cultured CHO-K1 cells stably transfected with human CB2R (Perkin Elmer). Two microgram plasma membrane protein was used in a 1 mL reaction mixture. Ki values were derived by computerized curve fitting and using the Cheng-Prusoff equation to account for the affinity of the radioligand, using the GraphPad Prism 8 program (GraphPad Prism Software Inc.)."}, "[2]": {"biological_target": "T1, hCB2", "assay": "[35S]GTPγS binding assay in hCB2-CHO-K1 cell membranes", "type": "biochemical", "procedure": "Figure 2 Affinity and functional effects of novel MRI ligands on CB2 receptor in CHO cell membranes. (a) binding affinities (nM) and Emax (% and nM) of [^35S]-GTPγS binding to CHO membranes (PerkinElmer, Cat. No ES111-M400UA) expressing hCB2. (b) [^35S]-GTPγS binding to membranes as a factor of ligand concentration. Binding of [^35S]-GTPγS was determined as described in “Methods”. Non-specific binding was defined as 0% activity. The assay of GTPγS non-specific binding contains non-radioactive GTPγS.\n[^35S] GTPγS binding was assayed as described earlier[65] with slight modifications. Briefly, hCB2-CHO-K1 cell membranes (4 µg) were incubated with 0.05 nM [^35S] GTPγS, and the indicated concentrations of ligands in TEM buffer (50 mM Tris–HCl, 0.2 mM EGTA, and 9 mM MgCl2, pH 7.4) containing 100 µM GDP, 150 mM NaCl, and 0.1% (w/v) bovine serum albumin in a total volume of 1 ml for 60 min at 30 °C."}, "[3]": {"biological_target": "cannabinoid receptor CB2 (Homo sapiens, UniProt P34972)", "sequence (P34972 whole entry)": "as above", "assay": "[35S]GTP nucleotide exchange (GEF) G protein activation assay on CB2 in cell membrane preparations", "type": "biochemical", "set-up": "purchased PerkinElmer; Millipore ChemiScreen; Applied Cell Sciences; Signal Screen (Sf9); E. coli BL21 (DE3) and Expi293F membranes were made in house; ES111-M400UA; A318; 6110130; host or cells: CHO, CHO-K1, Sf9, Expi293F, Expi293F GNTI-, E. coli BL21 (DE3)", "description": "To better understand the reason for these discrepancies, we assessed the activation of CB2 receptor by the in vitro G protein activation assay that measures the rates of nucleotide exchange on the Gα subunit of G protein (GEF assay) as described previously[33],[34]. The assay reports the rates of formation of the complex of [^35S]-GTPγS, a homolog of GTP, with the Gα subunit of G protein. Typical assay conditions require small (nanogram) quantities of the receptor protein either in cell membranes or reconstituted into lipid bilayers. The readout of the assay is the amount of the non-hydrolysable complex of Gα with [^35S]-GTPγS which, under selected experimental conditions, is proportional to the amount of activated receptor in the assay.\nFigure 3 GEF of CB2 expressed in: (a) E. coli membranes and (b) CHO membranes (Millipore EMD). 2 μg of total protein per assay. Each point represents an average of four independent measurements (n = 4). Ligands were added at a concentration of 2 μM to ensure saturation of the receptor, and G protein was added as described in “Methods”. The dotted line indicates the rates of activation of G protein in the absence of a ligand. The rates of activation with […] are set to 100%, and rates of activation in the presence of SR-144,528 to 0%.\nFigure 4 GEF on CB2 expressed in different cell lines. An amount of 2 μg of membrane protein per assay was used. Each data points represents an average of four independent measurements (n = 4) with error rates indicated by the bars. 100% represents full activation in the presence of 2 μM of CP-55,940, and 0%–with 2 μM SR-144,528.\nThe subunits of G protein were expressed and purified as described previously. The nucleotide exchange assay was performed as previously described."}}, "note": "“Also recorded” adds a separate entry of the source."}
{"smiles": "CC(=O)OCCn1c(=NC(=O)C2C(C)(C)C2(C)C)sc2cc(Cl)ccc21", "note": "[MRI-2646, 2-(6-Chloro-2-((2,2,3,3-tetramethylcyclopropane-1-carbonyl)imino)benzo[d]thiazol-3(2H)-yl)ethyl acetate]", "values": [{"measurement": "Ki", "setting": "[1]", "value": "0.079 ± 0.011", "unit": "nM"}, {"measurement": "Emax", "setting": "[2]; CHO membranes expressing hCB2 (PerkinElmer ES111-M400UA), read-out: GTPγS binding Emax", "value": "-2 ± 4", "unit": "%"}, {"measurement": "Functional effect on G-protein signaling (pharmacological category)", "setting": "[2]; hCB2-expressing CHO cell membranes (PerkinElmer)", "value": "no effect on basal signaling"}, {"measurement": "Pharmacological category in GEF assay", "setting": "[3]; CB2 in CHO membranes (EMD Millipore), ligand 2 μM", "value": "partial inverse agonist"}, {"measurement": "Pharmacological category in GEF assay", "setting": "[3]; CB2 in CHO membranes (PerkinElmer)", "value": "neutral antagonist"}, {"measurement": "Pharmacological category in GEF assay", "setting": "[3]; CB2 in CHO-K1 membranes (Applied Cell Sciences)", "value": "partial inverse agonist"}, {"measurement": "Pharmacological category in GEF assay", "setting": "[3]; CB2 in E. coli BL21 (DE3) membranes (untreated), ligand 2 μM", "value": "partial agonist; also recorded: agonistic effects; also recorded: weaker agonist"}, {"measurement": "Pharmacological category in GEF assay", "setting": "[3]; CB2 in Expi293F GNTI- membranes", "value": "partial inverse agonist"}, {"measurement": "Pharmacological category in GEF assay", "setting": "[3]; CB2 in Expi293F membranes", "value": "partial inverse agonist"}, {"measurement": "Pharmacological category in GEF assay", "setting": "[3]; CB2 in baculovirus infected insect Sf9 cell membranes", "value": "partial agonist"}, {"measurement": "Pharmacological category in GEF assay", "setting": "[3]; CHO membranes (PerkinElmer), with and without exogenous G protein", "value": "neutral antagonist"}, {"measurement": "Pharmacological category in GEF assay", "setting": "[3]; E. coli membranes treated with 20 mM MβCD/cholesterol", "value": "neutral antagonist"}, {"measurement": "Pharmacological category in GEF assay", "setting": "[3]; Expi293F membranes treated with 20 mM MβCD (cholesterol depleted)", "value": "partial agonist"}, {"measurement": "Pharmacological category in GEF assay", "setting": "[3]; Expi293F membranes, with and without exogenous G protein", "value": "inverse agonist"}, {"measurement": "Pharmacological category in GEF assay", "setting": "[3]; Sf9 membranes, with and without exogenous G protein", "value": "partial agonist"}, {"measurement": "Pharmacological category on CB2", "setting": "[3]; bacterial- and insect-cell membranes", "value": "partial agonist"}, {"measurement": "Pharmacological category on CB2", "setting": "[3]; cholesterol-containing membranes", "value": "neutral antagonist or a partial inverse agonist; also recorded: either as an inverse agonist or a neutral antagonist"}, {"measurement": "Pharmacological category on CB2", "setting": "[3]; mammalian cell membranes", "value": "inverse agonist or neutral antagonist"}, {"measurement": "Pharmacological category on CB2", "setting": "[3]; membranes devoid of cholesterol", "value": "partial agonist"}]}
